Measurements published in ChEMBL document CHEMBL2331215, “Discovery of novel N-substituted oxindoles as selective m1 and m4 muscarinic acetylcholine receptors partial agonists” (ACS Med Chem Lett, 2013).
Active and inactive are the calls of the source. The calls are words filed in the database; no cut-off is given here.

How the values were obtained:
Rattus norvegicus = test: Antipsychotic activity in Sprague-Dawley rats assessed as inhibition of apomorphine-induced prepulse inhibition deficit at 1 to 10 mg/kg, sc administered 15 mins prior to apomorphine injection measured after 15 mins; type: functional, organism-based
[1] = molecular target: T1, Muscarinic acetylcholine receptor M5 (Homo sapiens) (UniProt P08912); test: Partial agonist activity at human M5 receptor in CHO cells assessed as calcium mobilization at 30 uM after 60 mins by FLIPR assay; type: functional, cell-based
T1 sequence (whole entry): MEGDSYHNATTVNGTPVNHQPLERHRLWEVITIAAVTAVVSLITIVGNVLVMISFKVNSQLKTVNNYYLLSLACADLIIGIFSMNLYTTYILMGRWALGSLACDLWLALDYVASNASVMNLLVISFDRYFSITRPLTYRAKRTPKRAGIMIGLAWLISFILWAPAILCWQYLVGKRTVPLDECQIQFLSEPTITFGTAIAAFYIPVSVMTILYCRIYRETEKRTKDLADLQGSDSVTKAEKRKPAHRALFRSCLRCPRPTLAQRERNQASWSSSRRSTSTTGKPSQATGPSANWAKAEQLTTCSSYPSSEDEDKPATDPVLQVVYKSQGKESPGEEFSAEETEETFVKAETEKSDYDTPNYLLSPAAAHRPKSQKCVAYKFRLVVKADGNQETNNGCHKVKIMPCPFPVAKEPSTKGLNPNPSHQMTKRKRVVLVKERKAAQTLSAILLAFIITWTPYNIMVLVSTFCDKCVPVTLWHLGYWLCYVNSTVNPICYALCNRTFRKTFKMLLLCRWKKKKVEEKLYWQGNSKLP

[2] = molecular target: Muscarinic acetylcholine receptor M3 (Homo sapiens) (UniProt P20309); test: Partial agonist activity at human M3 receptor in CHO cells assessed as calcium mobilization at 3 uM after 60 mins by FLIPR assay; type: functional, cell-based
Muscarinic acetylcholine receptor M3 (Homo sapiens), sequence (P20309 whole entry, looked up): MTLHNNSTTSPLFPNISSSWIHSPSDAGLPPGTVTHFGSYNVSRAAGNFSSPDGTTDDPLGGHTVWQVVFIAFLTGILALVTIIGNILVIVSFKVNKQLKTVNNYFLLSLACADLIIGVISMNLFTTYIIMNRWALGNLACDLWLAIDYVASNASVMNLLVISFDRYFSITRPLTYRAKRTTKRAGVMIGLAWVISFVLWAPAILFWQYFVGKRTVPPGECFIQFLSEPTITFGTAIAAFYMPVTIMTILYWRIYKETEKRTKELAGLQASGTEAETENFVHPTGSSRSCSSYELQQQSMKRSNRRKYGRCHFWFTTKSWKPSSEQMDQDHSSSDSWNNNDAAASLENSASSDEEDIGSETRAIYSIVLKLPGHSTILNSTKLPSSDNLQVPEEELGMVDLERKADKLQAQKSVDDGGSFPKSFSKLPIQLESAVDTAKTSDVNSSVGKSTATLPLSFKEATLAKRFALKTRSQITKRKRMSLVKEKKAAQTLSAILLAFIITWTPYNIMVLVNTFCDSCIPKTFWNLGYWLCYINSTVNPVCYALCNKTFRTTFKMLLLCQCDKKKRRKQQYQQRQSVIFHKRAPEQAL

[3] = molecular target: T1, Muscarinic acetylcholine receptor M5 (Homo sapiens); test: Partial agonist activity at human M5 receptor in CHO cells assessed as calcium mobilization at 3 uM after 60 mins by FLIPR assay; type: functional, cell-based
Cynomolgus monkey = test: Induction of salivation in sc dosed cynomolgus monkey; type: organism-based, Macaca fascicularis; details: in vivo

Structure (SMILES): CCOC(=O)N1[C@@H]2CC[C@H]1C[C@H](CN1CC[C@H](N3C(=O)Cc4ccccc43)C1)C2
- inhibition (Rattus norvegicus): Active
- Activity [1]: inactive
- Activity [2]: 7%
- Activity [3]: 17%
- Activity (Cynomolgus monkey): Toxic
